Measured values reported in patent US11053205B2, “Phenazine derivatives as antimicrobial agents” (University of Florida Research Foundation, Incorporated, priority 2017, dated 2021).
pIC50: −log10 of the molar value. ≈ marks a conversion by molar mass, not a printed value. Where two headings read alike, the source gives them in different places. Marks after values point to notes of the source that are not given here.

Legend:
MRSA BAA-1707 [1] = assay: MIC, broth microdilution (CLSI); conditions: 16 to 18 hours at 37° C.; 0.10 = lowest concentration tested
[2] = system: M. tuberculosis H37Ra (ATCC 25177); assay: MIC assay for Mycobacterium tuberculosis; format: cell-based; conditions: Mycobacterium tuberculosis, 168 h; seven days at 37° C.; read-out: MtB H37Ra MIC
Method: (§1) The culture was then diluted with fresh medium until an OD600 of 0.01 was reached. […] The final DMSO concentration was maintained at 0.5%. […] Three rows were reserved for each compound. […] OD600 absorbance was recorded using SPECTRAMAX M5 (Molecular Devices). Data obtained from three independent experiments were analyzed using Excel.
as §1, with “SpectraMax” for “SPECTRAMAX”

[3] = system: MRSA, MRSE and VRE biofilms; assay: CBD assays against MRSA, MRSE, and VRE biofilms (all strains); conditions: strains not given
MRSE 35984 = assay: MIC, broth microdilution (CLSI); conditions: 16 to 18 hours at 37° C.
human red blood cells [4] = conditions: human, 1 h, 200 μM, pH 7.2
VRE 700221 = assay: MIC, broth microdilution (CLSI); conditions: for MIC: Enterococcus, VRE; for VRE 700221 MIC: 16 to 18 hours at 37° C.
MRSA BAA-1707 biofilms = assay: Calgary Biofilm Device (CBD) assay, MBC/MBEC; conditions: for MRSA BAA-1707 MBEC: biofilm eradication
VRE 700221 biofilms = assay: Calgary Biofilm Device (CBD) assay, MBC/MBEC; conditions: for VRE 700221 MBEC: biofilm eradication
MRSA-1707 biofilms [5] = assay: CBD pulse experiments (two sequential 24 hour treatments); format: cell-based, Staphylococcus aureus; conditions: two sequential 24 hour compound treatments
HeLa cells [6] = system: HeLa cells
MRSE 35984 biofilms [7] = assay: Live/Dead staining of biofilms; format: cell-based, Staphylococcus epidermidis; conditions: 0.1, 5, and 10 μM, 24 hours
Method: (§2) A mid-log culture of MRSE 35894 was diluted 1:1,000-fold and 500 μL was transferred to each compartment of a 4 compartment CELLview dish (Greiner Bio-One 627871). The dish was then incubated for 24 hours at 37° C. After this time, the cultures were removed and the plate was washed with 0.9% saline. The dish was then treated with the compounds in fresh media at various concentrations. DMSO was used as the negative control in this assay. The dish was incubated with the compound for 24 hours at 37° C. After this time, the cultures were removed and the dish was washed with 0.9% saline for 2 minutes. Saline was then removed and 500 μL of the stain (Live/Dead BacLight Viability Kit, Invitrogen) were added for 15 minutes and left in the dark. After this time, the stain was removed and the dish was washed twice with 0.9% saline. Then the dish was fixed with 500 μL 4% paraformaldehyde in PBS for 30 minutes. Images of remaining MRSE biofilms were then taken with a fluorescence microscope. All data were analyzed using Image J software from three independent experiments.
Following biofilm eradication investigations in CBD assays, lead HP 61A was tested against biofilms of MRSE 35984 in live/dead staining experiments (FIG. 30B). After a 24-hour biofilm establishment, HP 61A was added at 0.1, 5, and 10 μM then left to incubate against MRSE 35984 biofilms for an additional 24 hours at 37° C.

UV-Vis metal(II) binding = format: physicochemical; conditions: kinetics of UV-Vis experiments
Method: Spectral scanning was performed from 200 to 800 nm in 2 nm increments.

MRSA BAA-1707 [8] = assay: Metal(II)-cation co-treatment MIC assay; format: cell-based; conditions: Staphylococcus aureus; copper(II) at 200 μM; read-out: MIC w/ Cu2+
S. epi 12228 = assay: MIC, broth microdilution (CLSI); conditions: Staphylococcus epidermidis, 12228, read-out: S. epi 12228 MIC
MRSA BAA-1707 [9] = assay: Macromolecular synthesis inhibition assay; format: cell-based, Staphylococcus aureus
Method: Macromolecular synthesis experiments were carried out in methicillin-resistant Staphylococcus aureus BAA-1707. An overnight culture (100 μL) of S. aureus BAA-1707 was sub-cultured into 10 mL of fresh TSBG media, which was allowed to grow to exponential phase (OD600=0.2−0.3) before transferring 500 μL to each well in a 24 well-plate. The test compounds and vehicle control (DMSO) were added to achieve the desired concentrations relative to their MIC values against S. aureus BAA-1707. Treated cultures were then incubated at 37° C. for 30 minutes before radioactive precursors for DNA ([^3H] thymidine (0.5 μCi)), RNA ([^3H] uridine (0.5 μCi)) and protein ([^3H] leucine (1 μCi)) were added. […] DMSO served as the negative control. DNA and RNA radiolabeled cultures were then incubated in 37° C. for 15 minutes before being stopped by adding 60 μL of cold 5% trichloroacetic acid (TCA). The protein synthesis experiment was stopped after 40 minutes by adding 60 μL cold TCA. These mixtures were then incubated at 2° C. for at least 30 minutes before the contents of the plates were transferred onto glass microfiber filters (24 mm) and washed 5 times with 1 mL of 5% TCA. The filters are allowed to dry overnight before 3.5 mL of the scintillation fluid was added to the scintillation vials containing the filters and the radiation counts were measured using liquid scintillation LS 6500.
For these experiments, MRSA-1707 cultures were treated with [^3H]-thymidine (DNA biosynthesis), [^3H]-uridine (RNA biosynthesis) and [^3H]-leucine (protein biosynthesis) in the presence of HP 1 and antibiotic controls (4-16×MIC).

[10] = LDH release assay for HeLa cytotoxicity; conditions: human, HeLa cells
MRSA BAA-44 biofilms = assay: Calgary Biofilm Device (CBD) assay, MBC/MBEC; conditions: biofilm eradication
MRSA-2 biofilms = assay: Calgary Biofilm Device (CBD) assay, MBC/MBEC
MRSE 35984 biofilms [11] = assay: Calgary Biofilm Device (CBD) assay, MBC/MBEC; conditions: Staphylococcus epidermidis, MRSE, read-out: MRSE 35984 MBC
human red blood cells [12] = assay: Hemolysis assay with red blood cells; conditions: 1 hour at 37° C.
MRSA-1 = assay: MIC, broth microdilution (CLSI); conditions: Staphylococcus aureus, MRSA, read-out: MRSA-1 MIC
MRSA-1707 biofilms [13] = assay: Live/Dead staining of biofilms; format: cell-based, Staphylococcus aureus; conditions: 0.1, 1 and 5 μM, 24 hours
Method: as §2, with “To support the CBD assay findings, LIVE/DEAD experiments were performed with potent Compound 27 (FIG. 7). A mid-log” for “A mid-log”, “culture of MRSA-2 was diluted” for “culture of MRSE 35894 was diluted”, “4 compartment […] dish (Greiner” for “4 compartment CELLview dish (Greiner”, “stain was removed, and the” for “stain was removed and the”, “of remaining MRSA-2 biofilms were” for “of remaining MRSE biofilms were”, “Image J software.” for “Image J software from three independent experiments.”
HP 1-17 was tested against MRSA-1707 biofilms in live/dead staining experiments. […] After this time, images of the treated and untreated MRSA-1707 biofilms were obtained using fluorescence microscopy (FIG. 20).

HeLa cells [14] = assay: LDH release assay for HeLa cytotoxicity

CCc1cccc2nc3c(O)c(Br)cc(Br)c3nc12 [HP 1-18]
MRSA BAA-1707 MIC (MRSA BAA-1707 [1]): 0.10^c μM
MIC [2]: 25 µM (≈ 9.55 µg/mL)
MBEC [3]: 0.59 to 2.35 µM
MRSE 35984 MIC (MRSE 35984): 0.10^c μM
Hemolysis at 200 μM (human red blood cells [4]): 1.7%
MIC (VRE 700221; read-out: VRE 700221 MIC, 16 to 18 hours at 37° C.): 0.15 to 1.56 µM (≈ 0.0573 to 0.596 µg/mL)

CCCCCCCCCCCCCCCC[N+](C)(C)Cc1ccccc1.[Cl-] [BAC-16, reference compound]
MRSA BAA-1707 MBEC (MRSA BAA-1707 biofilms; CBD): 15.6 µM
MRSA BAA-1707 MBC (MRSA BAA-1707 biofilms; CBD, planktonic killing): 31.3 µM
MRSA BAA-1707 MIC (MRSA BAA-1707 [1]): 1.56 µM
VRE 700221 MBEC (VRE 700221 biofilms; CBD): 3.0 µM
VRE 700221 MBC (VRE 700221 biofilms; CBD, planktonic killing): 5.9 µM
MRSE 35984 MIC (MRSE 35984): 1.56 µM
MBEC (pulse treatment) (MRSA-1707 biofilms [5]): 25 µM
VRE 700221 MIC (VRE 700221): 3.13 µM

Oc1c(Br)cc(Br)c2nc3cc(Cl)ccc3nc12 [61A]
pIC50 (HeLa cells [6]): < 4.00
biofilm eradication and clearance (live/dead staining) (MRSE 35984 biofilms [7]): highly potent eradication and clearance of MRSE 35984 biofilms
MRSA BAA-1707 MBEC (MRSA BAA-1707 biofilms; CBD): 4.69 µM
MRSA BAA-1707 MIC (MRSA BAA-1707 [1]): 0.038 µM
MRSE 35984 MIC (MRSE 35984): 0.1 µM
VRE 700221 MIC (VRE 700221): 0.39 µM

Oc1c(Br)cc(Br)c2nc3c(Cl)cccc3nc12 [HP 1-21]
rate of copper(II) chelation (UV-Vis metal(II) binding): faster rate than HP 1
MIC (MRSA BAA-1707 [8]): 6.25 µM
MIC [2]: 50 µM (≈ 19.4 µg/mL)
Hemolysis at 200 μM (human red blood cells [4]): ≤1%

COCCOCCOCCOCCOC(=O)Oc1c(Br)cc(Br)c2nc3c(C)cccc3nc12 [HP 1-25]
HeLa cell cytotoxicity at 100 μM (HeLa cells [6]): no HeLa cell cytotoxicity
MIC [2]: 12.5 µM (≈ 7.53 µg/mL)
Hemolysis at 200 μM (human red blood cells [4]): ≤1%
MIC (S. epi 12228): 0.1 µM (≈ 0.0602 µg/mL)

Oc1c(Br)cc(Br)c2nc3ccccc3nc12 [HP 1, 2,4-dibromophenazin-1-ol]
RNA biosynthesis inhibition ([3H]-uridine) (MRSA BAA-1707 [9]; at 4×MIC): inhibits both RNA and protein biosynthesis
protein biosynthesis inhibition ([3H]-leucine) (MRSA BAA-1707 [9]; at 4×MIC): inhibits both RNA and protein biosynthesis
DNA biosynthesis inhibition ([3H]-thymidine) (MRSA BAA-1707 [9]; at 8×MIC): does not inhibit DNA biosynthesis
IC50 at 24 h [10]: 100 µM
MIC [2]: 25 µM (≈ 8.85 µg/mL)
Hemolysis at 200 μM (human red blood cells [4]): ≤1%

CN[C@H](CC(C)C)C(=O)N[C@H]1C(=O)N[C@@H](CC(N)=O)C(=O)N[C@H]2C(=O)N[C@H]3C(=O)N[C@H](C(=O)N[C@H](C(=O)O)c4cc(O)cc(O)c4-c4cc3ccc4O)[C@H](O)c3ccc(c(Cl)c3)Oc3cc2cc(c3O[C@@H]2O[C@H](CO)[C@@H](O)[C@H](O)[C@H]2O[C@H]2C[C@](C)(N)[C@H](O)[C@H](C)O2)Oc2ccc(cc2Cl)[C@H]1O [vancomycin, reference compound]
MBC (MRSA BAA-1707 biofilms; Staphylococcus aureus, read-out: MRSA BAA-1707 MBC): 3.9 µM (≈ 5.65 µg/mL)
biofilm eradication activities against MRSA biofilms (MRSA BAA-1707 biofilms; at 2,000 μM (highest concentration tested)): no biofilm eradication activities
MRSA BAA-44 MBEC (MRSA BAA-44 biofilms): > 2000 µM
VRE 700221 MBEC (VRE 700221 biofilms; CBD): 150 µM
MBC (VRE 700221 biofilms; Enterococcus, VRE, read-out: VRE 700221 MBC): > 200 µM
MRSA-2 MBEC (MRSA-2 biofilms; CBD, biofilm eradication): > 2000 µM
MBC (MRSA-2 biofilms; Staphylococcus aureus, MRSA, read-out: MRSA-2 MBC): 3 µM (≈ 4.35 µg/mL)
MBC (MRSE 35984 biofilms [11]): 3 µM (≈ 4.35 µg/mL)
Hemolysis at 200 μM (human red blood cells [12]): ≤1%
MIC (VRE 700221; read-out: VRE 700221 MIC): > 100 µM
MIC (S. epi 12228): 1.17 µM (≈ 1.7 µg/mL)

Cc1ccc2nc3c(Br)cc(Br)c(O)c3nc2c1 [HP 1-20]
melting point: 213 to 215 °C

Cc1cccc2nc3c(O)c(Br)cc(Br)c3nc12 [HP 1-17]
MIC (MRSA-1): 0.1 µM (≈ 0.0368 µg/mL)
rate of copper(II) chelation (UV-Vis metal(II) binding): faster rate than HP 1
MIC [2]: 25 µM (≈ 9.2 µg/mL)
biofilm eradication and clearance (live/dead staining) (MRSA-1707 biofilms [13]): potent biofilm eradication and clearance response
Hemolysis at 200 μM (human red blood cells [4]): 6.7%

Oc1c(Br)cc(Br)c2nc3c(Br)cccc3nc12 [HP 1-23]
IC50 at 24 h [10]: > 100 µM
selectivity index (HeLa IC50 to MRSA BAA-1707 MIC) (HeLa cells [14]): > 2,000 fold
MIC [2]: 25 µM (≈ 10.8 µg/mL)
Hemolysis at 200 μM (human red blood cells [4]): 5.1%
